Measurements as given in US9457093B2, “Solid dispersions of a ERB2 (HER2) inhibitor” (Array BioPharma Inc., priority 2011, dated 2016).

Assay: Dissolution testing at pH 6.5 in phosphate buffer at 37° C.
Format: physicochemical
Conditions: pH 6.5 phosphate buffer, about 240 minutes
Experimental: Dissolution testing was performed at a pH of 6.5 in phosphate buffer. The solid dispersion was suspended in H2O and added directly to the buffer solution at 37° C. The dissolution profile was collected over a period of about 240 minutes. The results are in FIG. 2.
Dissolution testing was performed at a pH of 6.5 in phosphate buffer. The solid dispersion was suspended in H2O and added directly to the buffer solution at 37° C. The dissolution profile was collected over a period of about 240 minutes. The results are in FIG. 3.
Dissolution testing was performed at a pH of 6.5 in phosphate buffer. The solid dispersion was suspended in H2O and added directly to the buffer solution at 37° C. The dissolution profile was collected over a period of about 240 minutes. The results are in FIG. 4.
Dissolution testing was performed at a pH of 6.5 in phosphate buffer. The solid dispersion was suspended in H2O and added directly to the buffer solution at 37° C. The dissolution profile was collected over a period of about 240 minutes. The results are in FIG. 5.
Dissolution testing was performed at a pH of 6.5 in phosphate buffer. The solid dispersion was suspended in H2O and added directly to the buffer solution at 37° C. The dissolution profile was collected over a period of about 240 minutes. The results are in FIG. 6.
Dissolution testing was performed at a pH of 6.5 in phosphate buffer. […]

Cc1cc(Nc2ncnc3ccc(NC4=NC(C)(C)CO4)cc23)ccc1Oc1ccn2ncnc2c1 [Example 12, N4-(4-([1,2,4]triazolo[1,5-α]pyridin-7-yloxy)-3-methylphenyl)-N6-(4,4-dimethyl-4,5-dihydrooxazol-2-yl)quinazoline-4,6-diamine freebase hemi-ethanolate]
AUC for the free drug species: 5490 ng·h/mL
Cmax for the free drug species: 440 ng/mL
